Measurements from patent publication US4229448A, “5-Substituted picolinic acid derivatives and an anti-hypertensive composition containing the same” (Meuji Seika Kaisha Ltd., priority 1978, dated 1980).
Where a name gives a salt, the structure may show the parent alone.

Key:
[1] = tested on: spontaneously hypertensive rats; experiment: Blood pressure changes, Direct Blood Pressure Measuring Method, oral administration (Table 1); format: in vivo; conditions: Rattus norvegicus, read-out: Maximum Depression in Blood Pressure
Description: Each of the compounds of the invention as indicated below was suspended in a 5% aqueous gum arabic solution and the suspension was administered orally (100 mg/kg) to groups consisting of three spontaneously hypertensive rats (18-23 week old; blood pressure before administration: 170-190 mmHg).

[2] = Acute toxicity (LD50), intraperitoneal (Table 1); format: in vivo; conditions: mouse, in vivo, ip, male ICR mice, 5 week old, observed 1 week after administration
[3] = Oral LD50; conditions: in vivo
[4] = prior art; cited from earlier work
[5] = prior art; cited from earlier work; remark: listed apart in the source
[6] = tested on: spontaneously hypertensive rats; experiment: Blood pressure changes, Tail Cuff Method, oral administration (Table 2); format: in vivo; conditions: Rattus norvegicus, 100 mg/kg orally, read-out: Maximum Depression in Blood Pressure
Description: Each of the compounds of the invention as indicated below was suspended in a 5% aqueous gum arabic solution and the suspension was administered orally to groups consisting of three spontaneously hypertensive rats (17-23 week old; blood pressure before administration: 170-190 mmHg).

[7] = tested on: male mice (ICR strain, 5 week old); experiment: Acute toxicity (LD50), intraperitoneal (Table 1); format: in vivo; conditions: observed 1 week after administration, 10080 min
[8] = Water solubility; format: physicochemical; conditions: suited for subcutaneous injection
[9] = 100 mg/kg orally, spontaneously hypertensive rats, Direct Blood Pressure Measuring Method

| Structure (SMILES) | inhibition in vivo at 100 mg/kg [1, 9] [%] | LD50 at 168 h [2] [mg/kg] | also measured |
| --- | --- | --- | --- |
| O=C(O)c1ccc(Oc2ccccc2Cl)cn1 [5-(o-Chlorophenoxy)picolinic Acid, 5-(o-chlorophenoxy)picolinic acid] | 30.1 | 150 to 200 | LD50 [3]: 400 to 600 mg/kg |
| CCCCc1ccc(C(=O)O)nc1 [Fusaric Acid, 5-n-butylpicolinic acid, reference compound] | – | 75 to 100 | inhibition in vivo at 100 mg/kg [1]: 15.8%; anti-hypertensive activity (in words) [4]: useful as an anti-hypertensive agent; LD50 value (in words) [5]: low LD50 value |
| O=C(O)c1ccc(OCCCCl)cn1 [5-(3-Chloropropoxy)picolinic Acid, 5-(3-chloropropoxy)picolinic acid] | 18.2 | 150 to 200 | – |
| O=C(O)c1ccc(Oc2ccc([N+](=O)[O-])cc2)cn1 [5-(p-Nitrophenoxy)picolinic Acid, 5-(p-nitrophenoxy)picolinic acid] | 15.1 | 500 to 600 | – |
| O=C(O)c1ccc(Oc2ccccc2C(F)(F)F)cn1 [5-(o-trifluoromethylphenoxy)picolinic acid] | 27.6 | 150 to 200 | LD50 [3]: 400 to 600 mg/kg |
| NC(=O)c1ccc(Oc2ccccc2Cl)cn1 [5-(o-Chlorophenoxy)picolinic Acid Amide] | – | – | inhibition in vivo at 100 mg/kg [6]: 19.6% |
| O=C(Oc1ccc2c(c1)CCC2)c1ccc(Oc2ccccc2Cl)cn1 [indanyl ester of 5-(o-chlorophenoxy)picolinic acid] | – | – | inhibition in vivo at 100 mg/kg [6]: 29% |
| Cl.Cl.Nc1ccc(Oc2ccc(C(=O)O)nc2)cc1 [5-(p-aminophenoxy)picolinic acid dihydrochloride] | 8.3 | 450 to 500 | – |
| O=C(O)c1ccc(Oc2ccc(Cl)cc2Cl)cn1 [5-(2,4-Dichlorophenoxy)picolinic Acid] | 24.6 | 150 to 200 | – |
| COc1ccc(Oc2ccc(C(=O)O)nc2)c(OC)c1 [5-(2,4-Dimethoxyphenoxy)picolinic Acid] | 19.2 | 400 to 450 | – |
| CC(OC(=O)c1ccc(Oc2ccc(Cl)cc2)cn1)OC(=O)C(C)(C)C (stereo not drawn) [α-pivaloyloxyethyl ester of 5-(p-chlorophenoxy)picolinic acid] | – | – | inhibition in vivo at 100 mg/kg [6]: 21.8%; LD50 [3]: 900 to 1000 mg/kg |
| O=C(O)c1ccc(Oc2ccc(Cl)cc2)cn1 [Calcium Salt of 5-(p-Chlorophenoxy)picolinic Acid] | – | – | Acute Toxicity (LD50) [7]: 350 to 400 mg/kg |
| NC(=O)c1ccc(OCCCCCl)cn1 [5-(4-Chlorobutoxy)picolinic Acid Amide, 5-(4-chlorobutoxy)picolinic acid amide] | – | – | inhibition in vivo at 100 mg/kg [6]: 21.5%; LD50 [3]: 1500 to 1600 mg/kg |
| CN(C)CCOC(=O)c1ccc(OCCCCCl)cn1 [dimethylaminoethyl ester of 5-(4-chlorobutoxy)picolinic acid hydrochloride] | – | – | water solubility [8]: increased water solubility |
| O=C(O)c1ccc(OCCCCC(F)(F)F)cn1 [Calcium Salt of 5-(5,5,5-Trifluoropentyloxy)picolinic Acid] [Calcium 5-(5,5,5-trifluoropentyloxy)picolinate] | – | – | Acute Toxicity (LD50) [7]: 800 to 900 mg/kg |
| NC(=O)c1ccc(Oc2ccccc2C(F)(F)F)cn1 [5-(o-trifluoromethylphenoxy)picolinic acid amide] | – | – | inhibition in vivo at 100 mg/kg [6]: 20.7%; LD50 [3]: 950 mg/kg |
| CC(=O)c1ccc(Oc2ccc(C(=O)O)nc2)cc1 [5-(p-Acetylphenoxy)picolinic Acid] | 17.3 | 400 to 500 | – |
| O=C(Oc1ccc2c(c1)CCC2)c1ccc(Oc2ccccc2C(F)(F)F)cn1 [Indanyl Ester of 5-(o-Trifluoromethylphenoxy)picolinic Acid] | – | – | inhibition in vivo at 100 mg/kg [6]: 26.3% |
| O=C(O)c1ccc(OCCCCCl)cn1 [Calcium Salt of 5-(4-Chlorobutoxy)picolinic Acid] [Calcium 5-(4-chlorobutoxy)picolinate] | – | – | Acute Toxicity (LD50) [7]: 800 to 1000 mg/kg |

| Structure (SMILES) | inhibition in vivo at 100 mg/kg [1, 9] [%] | LD50 at 168 h [2] [mg/kg] | also measured |
| --- | --- | --- | --- |
| O=C(O)c1ccc(Oc2ccc(C(F)(F)F)cc2)cn1 [5-(p-trifluoromethylphenoxy)picolinic acid] | 29.3 | 200 to 250 | – |
| COc1ccc(Oc2ccc(C(=O)O)nc2)cc1 [5-(p-Methoxyphenoxy)picolinic Acid, 5-(p-methoxyphenoxy)picolinic acid] | 14.2 | 500 to 600 | – |
| O=C(O)c1ccc(Oc2ccc(Cl)cc2)cn1 [5-(p-Chlorophenoxy)picolinic Acid, 5-(p-chlorophenoxy)picolinic acid] | 28.3 | – | Acute Toxicity (LD50) [7]: 150 to 200 mg/kg; LD50 [3]: 400 to 600 mg/kg |
| O=C(O)c1ccc(Oc2cccc(C(F)(F)F)c2)cn1 [5-(m-trifluoromethylphenoxy)picolinic acid] | 20.8 | 500 to 600 | – |
| NC(=O)c1ccc(Oc2ccc(Cl)cc2)cn1 [5-(p-Chlorophenoxy)picolinic Acid Amide, 5-(p-chlorophenoxy)picolinic acid amide] | – | – | inhibition in vivo at 100 mg/kg [6]: 23.7% |
| O=C(O)c1ccc(OCCCCC(F)(F)F)cn1 [5-(5,5,5-Trifluoropentyloxy)picolinic Acid] [5-(5,5,5-trifluoropentyloxy)picolinicacid] | – | – | Acute Toxicity (LD50) [7]: 150 to 200 mg/kg |
| CCOC(=O)c1ccc(Oc2ccc(Cl)cc2)cn1 [ethyl ester of 5-(p-chlorophenoxy)picolinic acid] | – | – | inhibition in vivo at 100 mg/kg [6]: 23.3% |
| Cc1ccc(Oc2ccc(C(=O)O)nc2)cc1 [5-(p-Methylphenoxy)picolinic Acid, 5-(p-methylphenoxy)picolinic acid] | 17 | 200 to 300 | – |
| O=C(Oc1ccc2c(c1)CCC2)c1ccc(OCCCCCl)cn1 [5-indanyl ester of 5-(4-chlorobutoxy)picolinic acid] | – | – | inhibition in vivo at 100 mg/kg [6]: 26.3%; LD50 [3]: 1600 to 1800 mg/kg |
| O=C(O)c1ccc(Oc2cccc(Cl)c2)cn1 [5-(m-Chlorophenoxy)picolinic Acid, 5-(m-chlorophenoxy)picolinic acid] | 16.7 | 300 to 400 | – |
| O=C(O)c1ccc(Oc2ccc(C(F)(F)F)cc2C(F)(F)F)cn1 [5-(2,4-Ditrifluoromethylphenoxy)picolinic Acid] | 25.5 | 200 to 250 | – |
| O=C(Oc1ccc2c(c1)CCC2)c1ccc(Oc2ccc(Cl)cc2)cn1 [indanyl ester of 5-(p-chlorophenoxy)picolinic acid] | – | – | inhibition in vivo at 100 mg/kg [6]: 27.5%; LD50 [3]: 700 to 800 mg/kg |
| CCCCOc1ccc(C(=O)O)nc1 [5-n-Butoxy-picolinic Acid, reference compound] | 16.6 | 100 to 150 | – |
| O=C(O)c1ccc(OCCCCCl)cn1 [5-(4-Chlorobutoxy)picolinic Acid, 5-(4-chlorobutoxy)picolinic acid] | 23 | – | Acute Toxicity (LD50) [7]: 150 to 200 mg/kg; LD50 [3]: 900 mg/kg |
| O=C(O)c1ccc(OCCCCC(F)(F)F)cn1 [5-(5,5,5-trifluoropentyloxy)picolinicacid] | 28.7 | – | – |
| O=C(O)c1ccc(Oc2c(Cl)cccc2Cl)cn1 [5-(2,6-Dichlorophenoxy)picolinic Acid] | 23.7 | 150 to 200 | – |
| Cc1ccc(Oc2ccc(C(=O)O)nc2)c(C)c1 [5-(2,4-Dimethylphenoxy)picolinic Acid] | 16.9 | 250 to 300 | – |
| O=C(O)c1ccc(Oc2ccc(Br)cc2)cn1 [5-(p-Bromophenoxy)picolinic Acid, 5-(p-bromophenoxy)picolinic acid] | 27.5 | 150 to 200 | – |
